The source of these data is paper PMC3128011, “Central nervous system exposure of next generation quinoline methanols is reduced relative to mefloquine after intravenous dosing in mice” (Malaria Journal, 2011).

Values after ≈ are worked out from the molar mass of the structure shown. Read-outs that look alike come from different tables or passages of the source. A value given as a limit tells only on which side of the number the result lay.

The nature of series [1]: Brain and plasma concentrations after IV dosing in mice (LCMS/MS); free brain level from equilibrium dialysis fu. Conditions: male FVB mice, IV 5 mg/kg; for Maximum whole brain concentration: sampled 5 min, 1, 6, 24 h; for Maximum free brain concentration: whole brain concentration x fu from brain homogenate equilibrium dialysis; for remaining at 24 h: mouse, plasma, 24 h relative to the 5 minute time point, read-out: Residual plasma concentration at 24 h (24h % Remaining). Format: in vivo. On the procedure: All in vivo studies were conducted in accordance with protocols approved by the Victorian College of Pharmacy, Animal Ethics Committee. Male, six week old FVB mice were obtained from the Animals Resources Center (Perth, Western Australia) and provided with food and water ad libitum. Mice were administered a 50 μL bolus injection of mefloquine, its enantiomers or one of twenty five quinoline methanol compounds by tail vein injection (dosing solution concentration 2.8 mg/ml) for a nominal dose of 5 mg/kg. The compounds were prepared in 5% DMSO in 5% glucose solution buffered to a pH of 3-5 using citrate or acetate as appropriate based on an assessment of the lipophilicity and pKa of the compound. At 5 min, 1 h, 6 h or 24 h post-dosing, mice were anaesthetized with inhaled isoflurane (3%) approximately 3-4 minutes prior to blood and brain harvest. Blood was collected by cardiac puncture from groups of 2-3 mice and the whole brain was removed. The whole brains were placed into preweighed polypropylene vials and snap frozen prior to storage along with the plasma samples at -20°C until analysis. On the day of analysis, the whole brain was homogenized in three parts of aqueous solution containing 0.1 M EDTA and 0.4 g/L KF (inhibitors of hydrolytic enzymes to reduce the potential for ex vivo tissue-mediated degradation of the test compounds). Calibration standards were prepared by spiking blank brain homogenate and blank plasma with the test compound. Both samples and standards were processed by adding acetonitrile (to precipitate proteins) and centrifuged to separate the supernatant for analysis. An aliquot of the supernatant from each brain homogenate and plasma samples were analysed by UPLC/MS/MS on either a Quattro Premier XE, a Quattro Ultima Pt or a Xevo XT Mass Spectrometer (Waters Corporation, USA).
The unbound fraction of each analog in mouse brain homogenate was determined in vitro using equilibrium dialysis according to methodology reported previously. In brief, a 96 well equilibrium dialysis apparatus was used to determine the unbound fraction in brain homogenate for each compound (HT Dialysis LLC, Gales Ferry, CT). Membranes (12-14 kDA cut-off) were conditioned in deionized water for 60 minutes, followed by conditioning in 80:20 deionized water:ethanol for 20 minutes, and then rinsed in artificial cerebrospinal fluid (CSF) before use. Mouse brain was removed from the freezer and allowed to thaw on the day of experiment. Thawed brain tissue was then homogenized with artificial CSF to a final composition of 1:2 brain:artificial CSF using a Covaris S2 (K Biosciences, Hoddesdon, UK). Diluted brain homogenate was then spiked with the test compound (10 ug/g), and 150 μL aliquots (n = 6 replicate determinations) loaded into the 96-well equilibrium dialysis plate. Dialysis vs artificial CSF (150 μL) was carried out for 5 hours in a temperature controlled incubator at ca. 37°C (Barworld Scientific Ltd, UK) using an orbital microplate shaker at 125 revolutions/minute (Barworld scientific Ltd, UK). At the end of the incubation period, aliquots of brain homogenate or artificial CSF were transferred to micronic tubes (Micronic B.V., the Netherlands) and the composition in each tube balanced with control fluid, such that the volume of artificial CSF to brain was the same. Sample extraction was performed by the addition of 400 μL of acetonitrile containing an appropriate internal standard. Samples were allowed to mix for 1 minute and then centrifuged at 3000 rpm in 96-well blocks for 15 minutes (Allegra X12-R, Beckman Coulter, USA). All samples were then analysed by UPLC/MS/MS on a Quattro Premier XE Mass Spectrometer (Waters Corporation, USA). The unbound fraction in brain was determined as the ratio of the peak area in artificial CSF to that in brain, with correction for dilution factor according to eq.1 [14].(1) [drawing 1] […]
For orientation: In equilibrium dialysis only unbound substance equilibrates across the membrane.

For series [2], the system named is P. falciparum strain W2. In words: Plasmodium falciparum susceptibility assay (labeled hypoxanthine). Conditions: for IC90: Plasmodium falciparum; for Potency against P. falciparum in words: in vitro. Format: cell-based. As for the experimental part:
The in vitro activities of quinoline methanols against P. falciparum strains W2, D6, TM91C235, and TM90C2A were evaluated using the traditional labeled hypoxanthine assay of Desjardins et al as modified by Milhous et al. These four P. falciparum strains were selected since they have various levels of resistance to conventional anti-malarials. W2 is chloroquine resistant and mefloquine sensitive, D6 is chloroquine sensitive but naturally less susceptible to mefloquine, TM91C235 is resistant to mefloquine, chloroquine, and pyrimethamine as is TM90C2A, however this latter parasite is a two pfmdr1 copy strain (pfmdr1 amplification has been associated with clinical mefloquine resistance). Mefloquine is routinely screened in these assays to ensure the validity. Historical values for mefloquine against all the strains are reported elsewhere. The focus of this study was the mefloquine-sensitive strain W2, however values for the other strains for all the compounds are reported in the Supplementary Information.

Series [3] in a line: Half-life after oral dosing (data not shown). Format: in vivo.

Turning to `O[C@H](c1cc(C(F)(F)F)nc2c(C(F)(F)F)cccc12)[C@@H]1CCCCN1` (single isomer, unassigned) [(+) mefloquine enantiomer, reference compound], in series [1], the “Maximum whole brain concentration” value is 1159 ng/g and the “Maximum free brain concentration” value is given as 2.5 ng/g.

Consider `OC(c1cc(C(F)(F)F)nc2c(C(F)(F)F)cccc12)C1CCCCN1` (single isomer, unassigned; (-)) [(-) mefloquine enantiomer, reference compound], for which, in series [1] (5 mg/kg), the “Maximum whole brain concentration” value is 2249 ng/g and the “Maximum free brain concentration” value is 5.2 ng/g.

What is called IC90 is the point of the concentration-response curve where the effect stands at 90%. On to `OC(c1cc(C(F)(F)F)nc2c(C(F)(F)F)cccc12)C1CCCCN1` (centres unmarked) [Mefloquine, mefloquine], for which, in series [1] (listed as MQ, 5 mg/kg), the “Maximum whole brain concentration” value is 1807 ng/g and the “Maximum free brain concentration” value worked out at 4.9 ng/g. For the same compound, the remaining at 24 h in series [1] was 35%. Besides, the IC90 in series [2] (mefloquine-sensitive W2 strain of P. falciparum, read-out: IC90 W2) came to 0.01 µg/mL (≈ 0.0264 µM).

For `CCCCNCC(O)c1cc(C(F)(F)F)nc2c(C(F)(F)F)cccc12` (centres unmarked) [WR177000], in series [1], the “Brain concentrations (free and whole) relative to mefloquine, in words” value is “much higher”. For the same compound, the “Potency against P. falciparum in words” value in series [2] is given as “most active”.

Consider `CNCC(O)c1cc(C(F)(F)F)nc2c(C(F)(F)F)cccc12` (centres unmarked) [WR308245], for which the “Brain concentrations (free and whole) relative to mefloquine, in words” value in series [1] is given as “much higher”. The “Potency against P. falciparum in words” value in series [2] is recorded as “most active”.

As for `CN(C)CC(O)c1cc(C(F)(F)F)nc2c(C(F)(F)F)cccc12` (centres unmarked) [WR308246], the “Brain concentrations (free and whole) relative to mefloquine, in words” value in series [1] is listed as “much higher”. The “Potency against P. falciparum in words” value in series [2] is listed as “most active”.

For `CC(C)NCC(O)c1cc(C(F)(F)F)nc2c(C(F)(F)F)cccc12` (centres unmarked) [WR308257], in series [1], the “Brain concentrations (free and whole) relative to mefloquine, in words” value is given as “much higher”. For the same compound, the “Potency against P. falciparum in words” value in series [2] is recorded as “most active”.

As for `OC(CN1CCCCC1)c1cc(C(F)(F)F)nc2c(C(F)(F)F)cccc12` (centres unmarked) [WR308265], the “Brain concentrations (free and whole) relative to mefloquine, in words” value in series [1] is reported as “much higher”. Besides, in series [2], the “Potency against P. falciparum in words” value is reported as “most active”.

In the case of `CSCCCNCC(O)c1cc(C(F)(F)F)nc2c(C(F)(F)F)cccc12` (centres unmarked) [WR308278], the “Brain concentrations (free and whole) relative to mefloquine, in words” value in series [1] is listed as “much higher”. For the same compound, in series [2], the “Potency against P. falciparum in words” value is “most active”.

Regarding `CCC(C)CNCC(O)c1cc(C(F)(F)F)nc2c(C(F)(F)F)cccc12` (centres unmarked) [WR308387], in series [1], the “Brain concentrations (free and whole) relative to mefloquine, in words” value was “much higher”. Moreover, the “Potency against P. falciparum in words” value in series [2] was “most active”.

`OC(CNCCNCc1ccccc1)c1cc(C(F)(F)F)nc2c(C(F)(F)F)cccc12` (centres unmarked) [WR308396]: in series [1], the “Maximum whole brain concentration” value worked out at 1768 ng/g, the “Maximum free brain concentration” value turned out to be 3.5 ng/g and the remaining at 24 h worked out at 4.6%. Besides, in series [2] (W2, read-out: IC90 W2), the IC90 stood at 0.006 µg/mL (≈ 0.0131 µM). In series [2], the “Potency against P. falciparum in words” value is “acceptable potency”.

`COCCNCC(O)c1cc(C(F)(F)F)nc2c(C(F)(F)F)cccc12` (centres unmarked) [WR308412]: in series [1], the “Brain concentrations (free and whole) relative to mefloquine, in words” value was “much higher”. Further, the “Potency against P. falciparum in words” value in series [2] is “most active”.

Regarding `OC(CNC1CCNC1)c1cc(C(F)(F)F)nc2c(C(F)(F)F)cccc12` (centres unmarked) [WR308781], in series [1], the “Maximum whole brain concentration” value is recorded as 689 ng/g, the “Maximum free brain concentration” value was 5.6 ng/g and the remaining at 24 h came to 3.3%. The IC90 in series [2] (W2, read-out: IC90 W2) is more than 0.5 µg/mL.

Take `OC(CNC1CCCNC1)c1cc(C(F)(F)F)nc2c(C(F)(F)F)cccc12` (centres unmarked) [WR318744]: in series [1], the “Maximum whole brain concentration” value was 593 ng/g, the “Maximum free brain concentration” value is recorded as 3.5 ng/g and the remaining at 24 h is 17%. For the same compound, in series [2] (W2, read-out: IC90 W2), the IC90 was more than 0.5 µg/mL.

As to `CCCCNCCNCC(O)c1cc(C(F)(F)F)nc2c(C(F)(F)F)cccc12` (centres unmarked) [WR318746], in series [1], the “Maximum whole brain concentration” value is listed as 431 ng/g, the “Maximum free brain concentration” value was 3.8 ng/g and the remaining at 24 h came out at 2.4%. For the same compound, the IC90 in series [2] (W2, read-out: IC90 W2) was 0.069 µg/mL (≈ 0.163 µM).

Regarding `OC(CNCC12CCC(C1)NC2)c1cc(C(F)(F)F)nc2c(C(F)(F)F)cccc12` (centres unmarked) [WR319535], in series [1], the “Maximum whole brain concentration” value came out at 145 ng/g; the “Brain concentrations (free and whole) relative to mefloquine, in words” value is given as “acceptable”; the “Maximum free brain concentration” value is on record as 0.45 ng/g; the remaining at 24 h came out at 2.7%. Moreover, the “Potency against P. falciparum in words” value in series [2] was “modest potency”. The “Half-life relative to mefloquine” value in series [3] is listed as “longer than mefloquine”.
